Measured values: PMC11609934, “Exploration and characterization of the antimalarial activity of cyclopropyl carboxamides that target the mitochondrial protein, cytochrome b” (European Journal of Medicinal Chemistry, 2024)
Where two headings read alike, the source gives them in different places.

Legend:
[1] = system: P. falciparum 3D7 parasites; assay: P. falciparum 3D7 asexual stage LDH assay (72 h); format: cell-based, Plasmodium falciparum; settings: for EC50: Plasmodium falciparum, 3D7, 72 h, means and SDs, three or more experiments; for fold decrease in Pf 3D7 activity relative to 17: ratio of EC50 to compound 17; for fold loss in Pf 3D7 activity relative to W499 (2): carboxamide variants versus cyclopropyl parent
Protocol: To establish the SAR, synthesized analogs were assessed against the asexual stage parasite (72 h) using LDH as a proxy for parasite growth inhibition. Cytotoxicity was monitored against the human HepG2 cell line using Cell TitreGlo as a metabolic marker for cell growth.
P. falciparum 3D7 Asexual Stage LDH Assay. This is a platform assay is routinely undertaken at the Walter and Eliza Hall Institute and details on the protocol has been previously published. Briefly, 10-point dilution series of the compounds were prepared in 384 well assay plates using an Echo555 (Labcyte). Appropriate volumes of 10 mM compound stocks were transferred into the assay plates such that the starting concentration was 1 μM, with a 1 in 3-fold dilution series. All wells were backfilled with DMSO to 40 nL such that this remained constant (0.1 % DMSO). The positive growth control was 0.1 % DMSO and the negative growth control was 100 nM chloroquine. The parasite inoculum (40 μL) was dispensed into plates containing compounds using a Multidrop Combi dispenser (Thermo Scientific). […] Following 72 h growth, plates were sealed with parafilm and frozen at −80 °C overnight. Plates were thawed at room temperature for at least 4 h prior to LDH activity being measured. […] Plates were shaken to ensure mixing and absorbance at 650 nm was measured in an EnVision (PerkinElmer) plate reader after 30 min of incubation at room temperature. […] The equation used is sigmoidal dose response (variable slope), Y = bottom + (top − bottom)/(1 + 10((logEC50 − X) × Hill Slope)).

[2] = Human HepG2 growth inhibition assay (Cell TitreGlo, 48 h); format: cell-based; settings: human, HepG2 cells, HepG2 cell growth inhibition over 48 h
Protocol: To establish the SAR, synthesized analogs were assessed against the asexual stage parasite (72 h) using LDH as a proxy for parasite growth inhibition. Cytotoxicity was monitored against the human HepG2 cell line using Cell TitreGlo as a metabolic marker for cell growth. Cyt b inhibitors typically have high lipophilicity, and so calculated physicochemical properties were determined, while in vitro ADME was also collected on representative analogs to gauge their suitability for efficacy studies in a 4-day P. berghei model.
Human HepG2 Growth Inhibition Assay. This is a routine assay undertaken at the Walter and Eliza Hall Institute and the method has been previously published. HepG2 cells were cultured in Dulbeccos modified eagles medium (DMEM) supplemented with 10 % fetal calf serum (FCS), in a humidified incubator at 37 °C and 5 % CO2. Assay plates (Greiner #781098, 384 well, white, tissue culture treated) were prepared by transferring appropriate volumes of 10 mM compound stocks using an Echo555 (Labcyte) such that the starting concentration was 50 μM, with a 1:2-fold dilution series. All wells were backfilled with DMSO to […] such that this remained constant (0.5 % DMSO). The positive growth control was 0.5 % DMSO and the negative growth control was 10 μM Bortezomib. HepG2 cells were seeded with 1000 cells in 50 μL DMEM with 10 % FCS into each well of the assay plates using a Multidrop Combi dispenser (Thermo Scientific). Plates were incubated at 37 °C and 5 % CO2 for 48 h. Cytotoxicity was determined using Cell Titer Glo (Promega) and calculated as a percentage using DMSO as the positive growth control and 10 μM Bortezomib as a negative growth control. EC50 values were calculated by Dotmatics 5.3 and Spotfire 7.11.1 software using a nonlinear regression four-parameter fit analysis. The equation used is sigmoidal dose response (variable slope), Y = bottom + (top − bottom)/(1 + 10((logEC50 − X) × Hill Slope)).

[3] = LDH activity of P. falciparum 3D7 parasites over 72 h, read-out: Pf 3D7 EC50 (SD)
[4] = read-out: Pf 3D7 EC50 (SD), LDH activity of P. falciparum 3D7 parasites over 72 h

SMILES | EC50 [1, 3] | fold decrease in Pf 3D7 activity relative to 17 [1] | CC50 at 48 h [2] | fold loss in Pf 3D7 activity relative to W499 (2) [1] | EC50 [1, 4]
O=C(NC1CC1)c1ccc(CNCc2ccccc2)cc1 [Compound 18, 4-((Benzylamino)methyl)-N-cyclopropylbenzamide] | > 10000 nM | – | – | – | –
CN(Cc1ccccc1)Cc1ccc(C(=O)NC2CC2)cc1 [Compound 19, 4-((Benzyl(methyl)amino)methyl)-N-cyclopropylbenzamide] | 2600 nM | 20 fold | > 40000 nM | – | –
CCN(Cc1ccccc1)Cc1ccc(C(=O)NC2CC2)cc1 [Compound 20, 4-((Benzyl(ethyl)amino)methyl)-N-cyclopropylbenzamide] | 700 nM | 4 fold | > 40000 nM | – | –
CC(C)(C)N(Cc1ccccc1)Cc1ccc(C(=O)NC2CC2)cc1 [Compound 23, 4-((Benzyl(tert-butyl)amino)methyl)-N-cyclopropylbenzamide] | 630 nM | – | > 40000 nM | – | –
CCC(C)N(Cc1ccccc1)Cc1ccc(C(=O)NC2CC2)cc1 (stereo not drawn) [Compound 24, 4-((Benzyl(sec-butyl)amino)methyl)-N-cyclopropylbenzamide] | 210 nM | – | > 40000 nM | – | –
O=C(NC1CC1)c1ccc(CN(Cc2ccccc2)Cc2ccccc2)cc1 [Compound 27, N-Cyclopropyl-4-((dibenzylamino)methyl)benzamide] | – | – | > 40000 nM | – | –
O=C(NC1CC1)c1cccc(CN(Cc2ccccc2)C2CC2)c1 [Compound 28, 3-((Benzyl(cyclopropyl)amino)methyl)-N-cyclopropylbenzamide] | 5600 nM | 40 fold | > 40000 nM | – | –
NC(=O)c1ccc(CN(Cc2ccc(Cl)cc2Cl)C2CC2)cc1 [Compound 29] | > 10000 nM | – | – | – | –
CNC(=O)c1ccc(CN(Cc2ccc(Cl)cc2Cl)C2CC2)cc1 [Compound 30] | 1180 nM | – | > 40000 nM | – | –
CCNC(=O)c1ccc(CN(Cc2ccc(Cl)cc2Cl)C2CC2)cc1 [Compound 31, 4-((Cyclopropyl(2,4-dichlorobenzyl)amino)methyl)-N-ethylbenzamide] | 310 nM | – | > 40000 nM | – | –
CCCNC(=O)c1ccc(CN(Cc2ccc(Cl)cc2Cl)C2CC2)cc1 [Compound 32, 4-((Cyclopropyl(2,4-dichlorobenzyl)amino)methyl)-N-propylbenzamide] | 640 nM | – | > 40000 nM | – | –
CC(C)NC(=O)c1ccc(CN(Cc2ccc(Cl)cc2Cl)C2CC2)cc1 [Compound 33] | 690 nM | – | > 40000 nM | – | –
O=C(NCC(F)(F)F)c1ccc(CN(Cc2ccc(Cl)cc2Cl)C2CC2)cc1 [Compound 34, 4-((Cyclopropyl(2,4-dichlorobenzyl)amino)methyl)-N-(2,2,2-trifluoroethyl)benzamide] | > 10000 nM | – | – | – | –
CN(C)CCNC(=O)c1ccc(CN(Cc2ccc(Cl)cc2Cl)C2CC2)cc1 [Compound 35] | 7600 nM | – | 9300 nM | – | –
NCCNC(=O)c1ccc(CN(Cc2ccc(Cl)cc2Cl)C2CC2)cc1 [Compound 36, 2-(4-((Cyclopropyl(2,4-dichlorobenzyl)amino)methyl)benzamido)ethan-1-aminium 2,2,2-trifluoroacetate] | > 10000 nM | – | – | – | –
O=C(NCCO)c1ccc(CN(Cc2ccc(Cl)cc2Cl)C2CC2)cc1 [Compound 37, 4-((Cyclopropyl(2,4-dichlorobenzyl)amino)methyl)-N-(2-hydroxyethyl)benzamide] | 2400 nM | – | > 40000 nM | approximately 25 fold | –
O=C(NC1CCC1)c1ccc(CN(Cc2ccc(Cl)cc2Cl)C2CC2)cc1 [Compound 38] | 480 nM | – | > 40000 nM | 4 fold | –
O=C(NC1CCCC1)c1ccc(CN(Cc2ccc(Cl)cc2Cl)C2CC2)cc1 [Compound 39] | – | – | > 40000 nM | 12 fold | 1200 nM
O=C(Nc1ccccc1)c1ccc(CN(Cc2ccc(Cl)cc2Cl)C2CC2)cc1 [Compound 40] | – | – | > 40000 nM | – | –
O=C(NC1CC1)c1ccc(CN(Cc2ccccc2F)C2CC2)cc1 [Compound 42] | 250 nM | – | > 40000 nM | – | –

SMILES | EC50 [1, 3] | fold decrease in Pf 3D7 activity relative to 17 [1] | CC50 at 48 h [2] | fold loss in Pf 3D7 activity relative to W499 (2) [1] | EC50 [1, 4]
O=C(NC1CC1)c1ccc(CN(Cc2cccc(F)c2)C2CC2)cc1 [Compound 43] | 240 nM | – | > 40000 nM | – | –
O=C(NC1CC1)c1ccc(CN(Cc2ccc(F)cc2)C2CC2)cc1 [Compound 44] | 220 nM | – | > 40000 nM | – | –
O=C(NC1CC1)c1ccc(CN(Cc2ccccc2Cl)C2CC2)cc1 [Compound 45, 4-(((2-Chlorobenzyl) (cyclopropyl)amino)methyl)-N-cyclopropylbenzamide] | 290 nM | – | > 40000 nM | – | –
O=C(NC1CC1)c1ccc(CN(Cc2cccc(Cl)c2)C2CC2)cc1 [Compound 46, 4-(((3-Chlorobenzyl) (cyclopropyl)amino)methyl)-N-cyclopropylbenzamide] | 340 nM | – | > 40000 nM | – | –
O=C(NC1CC1)c1ccc(CN(Cc2ccc(Cl)cc2)C2CC2)cc1 [Compound 47, 4-(((4-Chlorobenzyl) (cyclopropyl)amino)methyl)-N-cyclopropylbenzamide] | 210 nM | – | > 40000 nM | – | –
Cc1ccccc1CN(Cc1ccc(C(=O)NC2CC2)cc1)C1CC1 [Compound 48] | 200 nM | – | > 40000 nM | – | –
O=C(NC1CC1)c1ccc(CN(Cc2ccccc2C(F)(F)F)C2CC2)cc1 [Compound 49] | 220 nM | – | > 40000 nM | – | –
Cc1cccc(CN(Cc2ccc(C(=O)NC3CC3)cc2)C2CC2)c1 [Compound 50] | 170 nM | – | > 40000 nM | – | –
Cc1ccc(CN(Cc2ccc(C(=O)NC3CC3)cc2)C2CC2)cc1 [Compound 51] | 150 nM | – | > 40000 nM | – | –
O=C(NC1CC1)c1ccc(CN(Cc2cccc(C(F)(F)F)c2)C2CC2)cc1 [Compound 52] | 160 nM | – | > 40000 nM | – | –
O=C(NC1CC1)c1ccc(CN(Cc2ccc(C(F)(F)F)cc2)C2CC2)cc1 [Compound 53] | 110 nM | – | > 40000 nM | – | –
CC(=O)Nc1cccc(CN(Cc2ccc(C(=O)NC3CC3)cc2)C2CC2)c1 [Compound 66, 4-(((3-Acetamidobenzyl) (cyclopropyl)amino)methyl)-N-cyclopropylbenzamide] | > 10000 nM | – | – | – | –
CC(=O)Nc1ccc(CN(Cc2ccc(C(=O)NC3CC3)cc2)C2CC2)cc1 [Compound 67, 4-(((4-Acetamidobenzyl) (cyclopropyl)amino)methyl)-N-cyclopropylbenzamide] | > 10000 nM | – | – | – | –
O=C(NC1CC1)c1ccc(CN(Cc2cccnc2)C2CC2)cc1 [Compound 86] | > 10000 nM | – | – | – | –
O=C(NC1CC1)c1ccc(CNC2CC2)cc1 [Compound 88, N-cyclopropyl-4-((cyclopropylamino)methyl)benzamide] | > 10000 nM | – | – | – | –
CN(Cc1ccc(C(=O)NC2CC2)cc1)C1CC1 [Compound 89] | > 10000 nM | – | – | – | –
CC(C)CN(Cc1ccc(C(=O)NC2CC2)cc1)C1CC1 [Compound 92] | – | approximately 4 fold | – | – | 540 nM
O=C(NC1CC1)c1ccc(CN(C(=O)c2ccccc2)C2CC2)cc1 [Compound 99, N-Cyclopropyl-N-(4-(cyclopropylcarbamoyl)benzyl)benzamide] | > 10000 nM | – | – | – | –
O=C(NC1CC1)c1ccc(C(=O)N(Cc2ccccc2)C2CC2)cc1 [Compound 100, N [4]-Benzyl-N^1,N [4]-dicyclopropyl-terephthalamide] | > 10000 nM | – | – | – | –
O=C(NC1CC1)c1ncc(CN(Cc2ccccc2)C2CC2)s1 [Compound 106, 5-((Benzyl(cyclopropyl)amino)methyl)-N-cyclopropylthiazole-2-carboxamide] | > 10000 nM | – | – | – | –
